US10092582B2, “Cell mobilization agent containing lysophospholipid with retinoic acid introduced” (NOF CORPORATION, priority 2014, dated 2018)

Columns and labels:
[1] = tested on: human acute monocytic leukaemia cell line (THP-1); experiment: Monocyte mobilization effect: THP-1 cell migration rate in Transwell; type: cell-based; conditions: 3 hr; for cell migration rate (monocyte mobilization effect) compared to the control: 10 nM, FIG. 1, Ret-LysoPC of Example 1-2, Ret-PC of Comparative Example 1
Procedure: A cell suspension of human acute monocytic leukaemia cell line (hereinafter to be referred to as “THP-1”) (manufactured by ATCC) was centrifuged, the supernatant was discarded, 0.1% bovine serum albumin (fatty acid-free, manufactured by SIGMA ALDRICH)-containing RPMI-1640 (manufactured by Life Technologies) was added to give a dispersion. It was centrifuged again, the supernatant was discarded to give cell pellets. 0.1% Bovine serum albumin-containing RPMI-1640 was added to adjust the cell density to 1×10^6 cells/ml. The cell suspension (100 μl/well) was added to Transwell (manufactured by Corning Incorporated, φ6.5 mm, pore size φ8.0 μm). The cells were incubated at 37° C., 5% CO2 for 30 min, and a measurement solution (all-trans retinoic acid (manufactured by Tokyo Chemical Industry Co., Ltd.) (hereinafter to be referred to as “RA”), Ret-PC of Comparative Example 1 or Ret-LysoPC of Example 1-2 dissolved in 0.1% bovine serum albumin-containing RPMI-1640 to 10 nM, and 0.1% bovine serum albumin-containing RPMI-1640 alone) was placed in the lower part of the multiple well plate (600 μl/well). After incubation at 37° C., 5% CO2 for 3 hr, the cell suspension in the multiple well plate was collected, cell density was measured by a hemacytometer and the cell migration rate was determined. The cell migration rate was defined as follows. cell migration rate (%)=(number of cells in multiple well plate)/(number of cells added to Transwell)
A cell suspension of THP-1 was centrifuged, the supernatant was discarded, 0.1% bovine serum-containing RPMI-1640 was added to give a dispersion. It was centrifuged again, the supernatant was discarded to give cell pellets. 0.1% Bovine serum albumin-containing RPMI-1640 was added to adjust the cell density to 1×10^6 cells/ml. The cell suspension (100 μl/well) was added to Transwell (manufactured by Corning Incorporated, φ6.5 mm, pore size φ8.0 μm). The cells were incubated at 37° C., 5% CO2 for 30 min, and a measurement solution (Ret-LysoPC of Examples 1-1 and 1-2 dissolved in 0.1% bovine serum albumin-containing RPMI-1640 to 10 nM, and 0.1% bovine serum albumin-containing RPMI-1640 alone) was placed in the lower part of the multiple well plate (600 μl/well). After incubation at 37° C., 5% CO2 for 3 hr, the cell suspension in the multiple well plate was collected, cell density was measured by a hemacytometer and the cell migration rate was determined.
Using human acute monocytic leukaemia cell line (THP-1) (manufactured by ATCC), a monocyte migration effect of each sample was evaluated. A cell suspension of THP-1 was centrifuged, the supernatant was discarded, 0.1% bovine serum-containing RPMI-1640 was added to give a dispersion. It was centrifuged again, the supernatant was discarded to give cell pellets. 0.1% Bovine serum albumin-containing RPMI-1640 was added to adjust the cell density to 1×10^6 cells/ml. The cell suspension (100 μl/well) was added to Transwell (manufactured by Corning Incorporated, φ6.5 mm, pore size φ8.0 μm). The cells were incubated at 37° C., 5% CO2 for 30 min, and a measurement solution (C18:0-LysoPC (COATSOME MC-80H; manufactured by NOF CORPORATION), Ret-LysoPC of Example 2 or S1P (manufactured by Toronto Research Chemicals) dissolved in 0.1% bovine serum albumin-containing RPMI-1640, and 0.1% bovine serum albumin-containing RPMI-1640 alone) was placed in the lower part of the multiple well plate ([…]). After incubation at 37° C., 5% CO2 for 3 hr, the cell suspension in the multiple well plate was collected, cell density was measured by a hemacytometer and the cell migration rate was determined.

[2] = tested on: monocytes and macrophages; conditions: background art, non-patent documents 2, 3; cited from earlier work
[3] = tested on: Human bone marrow-derived mesenchymal stem cell line (UE7T-13); experiment: Mesenchymal stem cell mobilization effect: UE7T-13 cell migration ratio in Transwell; type: cell-based; conditions: 4 hr
Procedure: Human bone marrow-derived mesenchymal stem cell line (UE7T-13) (manufactured by National Institute of Biomedical Innovation JCRB Cell Bank) was previously cultured in serum-free DMEM (manufactured by SIGMA ALDRICH) for 24 hr, and 0.25% trypsin/1 mM EDTA solution (manufactured by SIGMA ALDRICH) was added to give a dispersion. 10% Serum-containing DMEM (Powered by 10 medium; manufactured by GlycoTechnica Ltd.) was added, the cell suspension was centrifuged, the supernatant was discarded, 0.1% bovine serum albumin (fatty acid-free, manufactured by SIGMA ALDRICH)-containing DMEM (manufactured by SIGMA ALDRICH) was added to give a dispersion. It was centrifuged again, the supernatant was discarded to give cell pellets. 0.1% Bovine serum albumin-containing DMEM was added to adjust the cell density to 4×10^5 cells/mi. The cell suspension (100 μl/well) was added to Transwell (manufactured by Corning Incorporated, φ6.5 mm, pore size φ8.0 μm). The cells were incubated at 37° C., 5% CO2 for 30 min, and a measurement solution (Ret-LysoPC of Example 1-2 dissolved in 0.1% bovine serum albumin-containing DMEM to 10 nM, or 0.1% bovine serum albumin-containing DMEM alone) was placed in the lower part of the multiple well plate (600 μl/well). After incubation at 37° C., 5% CO2 for 4 hr, the supernatant in the insert was removed. The cells on the upper membrane side were removed, the cells on the lower membrane side were immobilized with 4% para-formaldehyde solution, and stained with crystalviolet solution. They were washed with water, dried, and the number of cells per one field was measured by microscopic observation. The cell migration ratio was defined as follows. cell migration ratio=(number of cell per one membrane field when each measurement solution was used)/(number of cells per one membrane field of control)
The control refers to 0.1% bovine serum albumin-containing DMEM with no addition.
Human bone marrow-derived mesenchymal stem cell line (UE7T-13) (manufactured by National Institute of Biomedical Innovation JCRB Cell Bank) was previously cultured in serum-free DMEM (manufactured by SIGMA ALDRICH) for 24 hr, and 0.25% trypsin/1 mM EDTA solution (manufactured by SIGMA ALDRICH) was added to give a dispersion. 10% Serum-containing DMEM (Powered by 10 medium; manufactured by GlycoTechnica Ltd.) was added, the cell suspension was centrifuged, the supernatant was discarded, 0.1% bovine serum albumin (fatty acid-free, manufactured by SIGMA ALDRICH)-containing DMEM (manufactured by SIGMA ALDRICH) was added to give a dispersion. It was centrifuged again, the supernatant was discarded to give cell pellets. […] They were washed with water, dried, and the number of cells per one field was measured by microscopic observation. […]

[4] = 100 nM, FIG. 6, FIG. 7, Ret-LysoPC of Example 2

CCCCCCCCCCCCCCCCCC(=O)OC[C@@H](O)COP(=O)([O-])OCC[N+](C)(C)C [C18:0-LysoPC, 1-stearoyl-lysophosphocholine]
monocyte mobilization effect (cell migration rate) [1, 4]: absent | concentration at which a monocyte/macrophage mobilizing effect is exhibited [2]: ≥ 10 µM

CCCCCCCCCCCCC/C=C/[C@@H](O)[C@@H](N)COP(=O)(O)O [Example S1P, sphingosine-1-phosphoric acid]
monocyte mobilization effect (cell migration rate) ([1]; 1 nM, FIG. 7): did not show a significant (p<0.05) monocyte mobilization effect | monocyte mobilization effect (cell migration rate) [1, 4]: did not show a significant (p<0.05) monocyte mobilization effect | mesenchymal stem cell mobilization effect (cell migration ratio) ([3]; 10 nM, FIG. 8): did not show a significant (p<0.05) mesenchymal stem cell mobilization effect | mesenchymal stem cell mobilization effect (cell migration ratio) ([3]; 100 nM, FIG. 8): did not show a significant (p<0.05) mesenchymal stem cell mobilization effect | concentration at which mobilization of monocytes and macrophages is suppressed (acting on receptor 2) [2]: ≥ 100 nM | effective concentration range for mobilization of monocytes and macrophages [2]: around 10 nM

CC1=C(/C=C/C(C)=C/C=C/C(C)=C/C(=O)O)C(C)(C)CCC1 [RA, all-trans retinoic acid]
cell migration rate (monocyte mobilization effect) compared to the control [1]: did not show cell migration

CC1=C(/C=C/C(C)=C/C=C/C(C)=C/C(=O)OCC(O)COP(=O)([O-])OCC[N+](C)(C)C)C(C)(C)CCC1 (stereo not drawn) [Ret-LysoPC, 1-retinoyl-sn-glycero-3-phosphocholine]
cell migration rate (monocyte mobilization effect) compared to the control [1]: significant (P<0.05) cell migration | monocyte mobilization effect (cell migration rate) [1, 4]: present | monocyte mobilization effect (cell migration rate) ([1]; any of 1-100 nM, FIG. 7, Ret-LysoPC of Example 2): showed a significant monocyte mobilization effect | cell migration ratio (mesenchymal stem cell mobilization effect) compared to the control ([3]; 10 nM, FIG. 3, Ret-LysoPC of Example 1-2): significant cell migration | mesenchymal stem cell mobilization effect (cell migration ratio) ([3]; any of 1-100 nM, FIG. 8, Ret-LysoPC of Example 1-2): showed a significant mesenchymal stem cell mobilization effect

CC1=C(/C=C/C(C)=C/C=C/C(C)=C/C(=O)OCC(COP(=O)([O-])OCC[N+](C)(C)C)OC(=O)/C=C(C)/C=C/C=C(C)/C=C/C2=C(C)CCCC2(C)C)C(C)(C)CCC1 (stereo not drawn) [Ret-PC, diretinoyl phosphocholine]
cell migration rate (monocyte mobilization effect) compared to the control [1]: did not show cell migration
